Measured values taken from US20210393856A1, “COMPOSITIONS AND METHODS FOR REDUCING CALCIFICATION OF HEART VALVES” (Arizona Board of Regents on Behalf of the University of …, priority 2018, published 2021).

What was measured:
[1] = system: AVM cell cultures; experiment: qPCR measurement of osteogenic marker expression by AVM cell cultures (ATP, PO4, CD73); type: cell-based, mouse
Excerpt: (§1) Over 5 days, exposure to this concentration of ATP is apoptotic as measured by the ratio of Bax/Bcl2, and this may contribute to calcification.

[2] = system: AVM cultures; experiment: Effects of adenosine and adenosine receptor agonists on Runx2 expression in AVM cultures (qPCR); type: cell-based, mouse; details: for expression of Runx2 compared to control cultures: up to 5 days, FIG. 12
Excerpt: Expression was normalized to GAPDH. Average of 3 independent repeats with SEM.
Runx2 expression increases in calcifying AVM cells with time in culture. Cells treated with either 2′-MeCCPA (A1 agonist) or PSB0777 (A2a agonist) up to 5 days.
Adenosine levels were confirmed using HPLC.

[3] = system: mouse VIC; experiment: Osteogenic markers after mouse VIC incubation with adenosine receptor agonists; type: cell-based; details: mouse VIC / AVM cell cultures, FIG. 8
[4] = system: Alkaline phosphatase (ALP); details: aortas incubated in osteogenic medium (Zukowska et al., 2017); cited from earlier work
[5] = system: calcifying AVM cell cultures; experiment: Runx2 isoform and osteogenic marker expression in calcifying AVM cell cultures with various treatments; type: cell-based, mouse
Protocol: Embryonic precursors of valvular interstitial cells (VICs) calcify when grown as tissue culture aggregates similar to micromass cultures of limb cells developed by (Ahrens et al., 1977). A mouse fetal VIC cell line (AVM cells) obtained from the Immortamouse (gift of Kai Jiao, UAB) were used to investigate calcification. These cells express a temperature sensitive Large T antigen and are immortal at 33° C. and revert to a valvular phenotype at 37° C.
The cell and organ culture models described above are used to study valve calcification by staining and expression of osteogenic markers. […] Both Runx2 isoform levels are elevated concomitant with calcification in vitro and in situ. To explore the relationship between identified regulators and markers of the osteogenic program in calcifying valve tissues, Runx2 isoform and osteogenic marker expression was measured in calcifying AVM cell cultures with various treatments. AVM cultures were treated with siRNA against Runx2-II, noggin (inhibitor of BMP), an anti-TGFβ antibody (against all three isoforms), and DAPT (inhibitor of Notch signaling). […] These indicate that Runx2 is a fairly central player in this calcification process but that Runx2 expression, in these cultures, is independent of TGFβ and BMP signaling.
For cell culture, human and porcine VICs and human valvular endothelial cells (VECs) are used. VICs are expanded from initial culture and stored as aliquots in liquid nitrogen. All experiments are performed with low passage number cells and each cell source is profiled by the UA Genetics Core to confirm and maintain the identity of each cell line. A mouse AV valve mesenchymal cell line (AVM) was obtained from Kai Jao (U. of Ala., Birmingham). These cells were from mice containing a temperature sensitive large T transgene (Immorta-Mouse) and the cells were grown at 33° C. to obtain an immortal cell line (Peng et al., 2017). The cells revert to a cushion/valve phenotype at 37° C. The micromass cultures of Solursh and colleagues (Ahrens et al.,1977) were recapitulated to observe calcification in vitro in this cell system. Calcium deposits became visible by von Kossa staining by 5 days in culture and prominent by day 12 (FIG. 3). […] Marker expression is consistent with a valve calcification phenotype and supports a central role for Runx2 in calcification (FIG. 2). For organ culture of intact valves, fresh aortic pig valves are obtained from the meat lab in the College of Agriculture and incubated on the surface of collagen gels. Experiments compare responses in intact aortic valves and VIC and VEC cell lines. […] Though 19 purinergic receptors are identified in Table 1, those P2Y and P2X receptors that are not found in valve tissues are excluded from further analysis.

[6] = system: calcifying AVM cells; experiment: Runx2-II and Mgp in calcifying AVM cells in the presence of AMP; type: cell-based, mouse; details: FIG. 9
[7] = system: valve cell cultures; experiment: Apoptosis measured by the ratio of Bax/Bcl2 in valve cell cultures; type: cell-based; details: 100 μM, over 5 days
Excerpt: as §1

[8] = system: micromass cultures; experiment: Concentration of adenosine in culture media of micromass cultures after adding recombinant CD73; type: cell-based; parameters: concentration of adenosine in the culture media: unit not given here; details: 1 μg/ml, approximately 100,000 cells in a dish

O=P(O)(O)O [PO4]
osteogenic markers ([1]; added to culture media, at 12 days, FIG. 13): increases

C[C@@]1(O)[C@H](O)[C@@H](CO)O[C@H]1n1cnc2c(NC3CCCC3)nc(Cl)nc21 [2′-MeCCPA]
expression of Runx2 compared to control cultures ([2]; 0.1 μM): reduced
induction of osteogenic markers (Runx2 and MGP) [3]: significant induction

Nc1ncnc2c1ncn2[C@@H]1O[C@H](CO)[C@@H](O)[C@H]1O [adenosine]
Runx2 expression ([2]; AVM cultures at 0.35 μM, 3.5 μM and 50 μM adenosine, normalized to GAPDH, FIG. 11): inhibited at an exposure consistent with the high affinity A1 receptor
Alkaline phosphatase (ALP) activity [4]: reduced

Nc1nc(SCCc2ccc(S(=O)(=O)O)cc2)nc2c1ncn2[C@@H]1O[C@H](CO)[C@@H](O)[C@H]1O [PSB0777]
expression of Runx2 compared to control cultures ([2]; 1 μM): reduced
induction of osteogenic markers (Runx2 and MGP) [3]: significant induction

C[C@H](NC(=O)Cc1cc(F)cc(F)c1)C(=O)N[C@H](C(=O)OC(C)(C)C)c1ccccc1 [DAPT, reference compound]
Runx2 expression [5]: reduced Runx2 expression
expression of other markers (Twist1, Cbfβ, MGP) [5]: upregulated the other markers

Nc1ncnc2c1ncn2[C@@H]1O[C@H](COP(=O)(O)O)[C@@H](O)[C@H]1O [AMP]
Runx2-II and Mgp [6]: reduced

Nc1ncnc2c1ncn2[C@@H]1O[C@H](COP(=O)(O)OP(=O)(O)OP(=O)(O)O)[C@@H](O)[C@H]1O [ATP]
osteocalcin and osteopontin ([1]; 100 μM added every 12 hr, at 5 days): large increase
apoptosis as ratio of Bax/Bcl2 [7]: apoptotic
Alkaline phosphatase (ALP) activity [4]: increased

B1: recombinant CD73: ecto-5′-nucleotidase, converts AMP to adenosine (protein, UniProt P21589 27-549, looked up)
5'-nucleotidase: WELTILHTNDVHSRLEQTSEDSSKCVNASRCMGGVARLFTKVQQIRRAEPNVLLLDAGDQYQGTIWFTVYKGAEVAHFMNALRYDAMALGNHEFDNGVEGLIEPLLKEAKFPILSANIKAKGPLASQISGLYLPYKVLPVGDEVVGIVGYTSKETPFLSNPGTNLVFEDEITALQPEVDKLKTLNVNKIIALGHSGFEMDKLIAQKVRGVDVVVGGHSNTFLYTGNPPSKEVPAGKYPFIVTSDDGRKVPVVQAYAFGKYLGYLKIEFDERGNVISSHGNPILLNSSIPEDPSIKADINKWRIKLDNYSTQELGKTIVYLDGSSQSCRFRECNMGNLICDAMINNNLRHTDEMFWNHVSMCILNGGGIRSPIDERNNGTITWENLAAVLPFGGTFDLVQLKGSTLKKAFEHSVHRYGQSTGEFLQVGGIHVVYDLSRKPGDRVVKLDVLCTKCRVPSYDPLKMDEVYKVILPNFLANGGDGFQMIKDELLRHDSGDQDINVVSTYISKMKVIYPAVEGRIKFS
effects of exogenous ATP (osteogenic markers, apoptosis) ([1]; exogenous enzyme added with 100 μM ATP): reduced
increase of adenosine concentration in the culture media [8]: 5 fold
concentration of adenosine in the culture media ([8]; from 1.7 without enzyme): 8.7

B2: noggin: inhibitor of BMP (protein, UniProt Q13253 28-232, looked up)
Noggin: QHYLHIRPAPSDNLPLVDLIEHPDPIFDPKEKDLNETLLRSLLGGHYDPGFMATSPPEDRPGGGGGAAGGAEDLAELDQLLRQRPSGAMPSEIKGLEFSEGLAQGKKQRLSKKLRRKLQMWLWSQTFCPVLYAWNDLGSRFWPRYVKVGSCFSKRSCSVPEGMVCKPSKSVHLTVLRWRCQRRGGQRCGWIPIQYPIISECKCSC
Runx2 expression [5]: little effect
expression of other markers (Twist1, Cbfβ, MGP) [5]: lesser effects
